Consider 34 compounds from the OPERA property sets (Mansouri et al. 2018).

Molecules are shown by their SMILES.

A word on the logP: it is the decadic logarithm of the partition coefficient of the neutral form, usually between octanol and water. Regarding `COC(=O)c1ccc(C)cc1`, the logP worked out at 2.7.
The result for `Oc1c(F)cccc1F` reads 1.96.
On to `COC(=O)c1ccc(Br)cc1`, for which the log partition coefficient (logP) was determined as 2.95.
The result for `COC(=O)c1cccc(C)c1` reads 2.77; that for `Cc1nc(N)sc1C(=O)CCN(C)C`, 1.47.
In the case of `COC(=O)c1ccccc1OC`, the logP worked out at 2.04.
As to `Cc1cccc(C)c1C(=O)O`, the lipophilicity (logP) worked out at 2.21.
`CCc1cccc(OC(C)=O)c1` came in with a log partition coefficient (logP) of 2.45.
The compound `N#Cc1ccccc1C(N)=O` registered a logP of 0.
The value for `COC(=O)c1c(Cl)cccc1Cl` was 2.79; that for `COC(=O)c1cccc([N+](=O)[O-])c1` was 1.89.
The result for `COC(=O)c1cccc(Cl)c1` reads 2.85; that for `COC(=O)c1ccccc1[N+](=O)[O-]`, 1.66; that for `COC(=O)c1ccc(F)cc1`, 2.28.
Regarding `CC(=O)Oc1c(C)cccc1C`, the log partition coefficient (logP) stood at 2.32.
Turning to `COC(=O)c1ccc([N+](=O)[O-])cc1`, the logP is 1.89.
For `NC(=O)c1ccccc1[N+](=O)[O-]`, the log partition coefficient (logP) was -0.12.
`O=C(O)c1c(F)cccc1F` displayed a logP of 1.59.
Regarding `Cc1cccc(Cl)c1C(=O)O`, the logP came to 2.31.
The compound `COC(=O)c1c(C)cccc1C` had a logP of 2.55.
For the compound `COC(=O)c1ccccc1I`, the log partition coefficient (logP) was determined as 2.74.
The value for `COC(=O)c1c(F)cccc1F` was 1.96.
The value for `Cc1cccc(Cl)c1O` was 2.8; that for `Oc1c(Br)cccc1Br` was 3.36.
Compound `CCc1cccc(CC)c1O` had a lipophilicity (logP) of 3.03.
For `CSc1ccccc1C(N)=O`, the log partition coefficient (logP) worked out at 0.71.
In turn, `COC(=O)c1c(Cl)cccc1[N+](=O)[O-]` gave a log partition coefficient (logP) of 2.21.
In turn, `COc1cccc(OC(C)=O)c1` had a logP of 1.61.
The compound `O=C(O)c1c(Cl)cccc1[N+](=O)[O-]` had a lipophilicity (logP) of 1.56.
In the case of `CCOc1cccc(OC(C)=O)c1`, the lipophilicity (logP) amounted to 2.08.
As to `CC(=O)Oc1c(Cl)cccc1Cl`, the log partition coefficient (logP) was determined as 2.94.
`COC(=O)c1c(F)cccc1Cl` displayed a logP of 2.42.
`CCc1cccc(CC)c1OC(C)=O` registered a log partition coefficient (logP) of 3.4.
Regarding `COC(=O)c1ccccc1F`, the logP was found to be 1.82.
